Source: patent US20040138258A1, “Inhibitors of 11beta-hydroxysteroid dehydrogenase and uses therefor” (priority 2002, published 2004)

Biological target: T1, rat liver 11β HSD (Rattus norvegicus, UniProt P16232)
T1 construct: for the 11β HSDs isolated from rat liver; from tissue; host or cells: rat liver
Experiment: rat liver 11β HSD oxidative activity, corticosterone utilization (Lineweaver-Burk kinetics)
Type: biochemical
Settings: for inhibition of the enzyme: purified rat liver 11β HSD, 1,2,6,7-3H-corticosterone; for Ki: purified rat liver 11β HSD, oxidative activity, NADP+, 1,2,6,7-3H-corticosterone, with regard to the glucocorticoid substrate, read-out: Kis; for mode of inhibition: with regard to the glucocorticoid substrate (corticosterone), Lineweaver-Burk plot, rat liver 11β HSD oxidative activity
Procedure: Computational analyses were performed using the latest version of MacSpartan Plus and MSI InsightII. Experimental analysis employed the rat enzyme as described (Monder et al., BBA […] (1991) and references therein). Kinetic data were analyzed in Excel and plotted in CricketGraph.
The structural similarity between GCs like cortisol and the monoterpenes with the conformation of neomenthol (FIG. 1) was confirmed by the computational analysis of their steric and electronic similarities, as summarized in FIGS. 2 and 3. Only neomenthol precisely mimicked the region of GCs around C11 that contains the oxygen atom subjected to the redox reactions mediated by the 11β HSDs. Consequently, only neomenthol should bind to such an enzyme like its physiological substrate, competing with said substrate for the active site of said enzyme. This computation-based prediction was confirmed experimentally, as shown in FIGS. 4 and 5 for the 11β HSDs isolated from rat liver. The purified rat liver 11β HSD, when used in vitro, utilizes NADP+ and oxidizes cortisol and corticosterone in an ordered sequential bireactant mechanism (Monder et al., Biochim. Biophys. Acta 1115:23-29 (1991) and references therein). […] More importantly, the results identified the conformation of neomenthol as a lead for the rational optimization of 11β HSD inhibitors, applicable to both the in vivo oxidizing activity of 11β HSD2 and the in vivo reducing activity of 11β HSD1, as shown in FIG. 6. Using the same computational algorithms that correctly predicted the competitive mode of inhibitory activity for neomenthol, and the lack thereof for isomenthol, molecules were assembled in silico and evaluated for their computed physicochemical characteristics relevant for the desired inhibition of 11β HSD activity. Originating from the lead compounds (FIG. 6), the computational analysis converged on several optimized structures that contained combinations of physicochemical and steric elements prerequisite for 11β HSD inhibition. These structures are identified in FIGS. 7-10. FIG. 7 details for neomenthol the findings obtained with this approach. FIG. 8 details the findings for a representative compound in which, among other modifications, a structure equivalent to the B ring of cortisol has been deleted. FIG. 9 details the findings for a representative compound in which, among other modifications, a ring has been added to the structure equivalent to the D ring of cortisol. FIG. 10 details the findings for a representative compound in which, among other modifications, a structure equivalent to the D ring of cortisol has been deleted. As originally proposed for neomenthol (FIG. 11), these structures are sufficiently isosteric and isoelectronic with cortisol to displace it from its plasma binding proteins, in this way increasing the bioavailable, free cortisol in a living system, e.g. after topical administration to skin only in skin blood vessels.

T1 sequence (P16232 whole entry): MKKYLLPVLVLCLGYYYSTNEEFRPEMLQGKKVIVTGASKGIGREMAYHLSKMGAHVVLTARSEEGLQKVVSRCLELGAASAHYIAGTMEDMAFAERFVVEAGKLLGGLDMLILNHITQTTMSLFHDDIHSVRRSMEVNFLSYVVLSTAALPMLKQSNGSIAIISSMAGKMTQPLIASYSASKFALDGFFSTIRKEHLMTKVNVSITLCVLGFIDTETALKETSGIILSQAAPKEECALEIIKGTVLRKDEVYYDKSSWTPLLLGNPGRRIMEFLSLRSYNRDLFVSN

Row | SMILES | inhibition of the enzyme | Ki [µM] | mode of inhibition
1 | CC(C)[C@H]1CC[C@@H](C)C[C@@H]1O [isomenthol, (1S, 2R, 5R)-isomenthol] | inhibited the enzyme | 71 | non-competitive
2 | CC(C)[C@@H]1CC[C@@H](C)C[C@@H]1O [neomenthol, (1S, 2S, 5R)-neomenthol] | inhibited the enzyme | 35 | competitive
